In brackets after ≈: the same amount, converted by molar mass. Bridge positions count the residues as written; N and C are the ends. Square brackets hold non-standard residues; d marks the D form. Peptide text beside a SMILES is read from it. I, II: the chains in the order shown. * marks the point of attachment. ξ: configuration not given here. Pentadecanoyl = CCCCCCCCCCCCCCC(=O)*; Lauroyl = CCCCCCCCCCCC(=O)*; Decanoyl = CCCCCCCCCC(=O)*; Nonanoyl = CCCCCCCCC(=O)*; Octanoyl = CCCCCCCC(=O)*; Hexanoyl = CCCCCC(=O)*; ξK = NCCCCC(N)C(=O)O; Butyryl = CCCC(=O)*
Key:
[1] = tested on: Staphylococcus aureus; test: Antibacterial activity against Staphylococcus aureus ATCC 25923 assessed as reduction in bacterial cell growth incubated for 16 to 24 hrs by CLSI-protocol based Mueller-Hinton Broth micro-dilution method; type: functional; details: time 16-24 hrs
[2] = tested on: Bacillus subtilis; test: Antibacterial activity against Bacillus subtilis ATCC 23857 assessed as reduction in bacterial cell growth incubated for 16 to 24 hrs by CLSI-protocol based Mueller-Hinton Broth micro-dilution method; type: functional; details: time 16-24 hrs
[3] = tested on: Escherichia coli; test: Antibacterial activity against Escherichia coli ATCC 25922 assessed as reduction in bacterial cell growth incubated for 16 to 24 hrs by CLSI-protocol based Mueller-Hinton Broth micro-dilution method; type: functional; details: time 16-24 hrs
[4] = tested on: Pseudomonas aeruginosa; test: Antibacterial activity against Pseudomonas aeruginosa ATCC 27853 assessed as reduction in bacterial cell growth incubated for 16 to 24 hrs by CLSI-protocol based Mueller-Hinton Broth micro-dilution method; type: functional; details: time 16-24 hrs
[5] = tested on: Klebsiella pneumoniae; test: Antibacterial activity against Klebsiella pneumoniae ATCC 700603 assessed as reduction in bacterial cell growth incubated for 16 to 24 hrs by CLSI-protocol based Mueller-Hinton Broth micro-dilution method; type: functional; details: time 16-24 hrs
[6] = tested on: Erythrocyte; test: Hemolytic activity in human erythrocyte incubated for 70 mins by absorbance based assay; type: toxicity, cell-based; details: 1.167 h
[7] = tested on: Staphylococcus aureus; test: Antibacterial activity against Staphylococcus aureus ATCC 25923 assessed as reduction in bacterial cell growth measured for 18 hrs by Mueller-Hinton broth based two-fold serial dilution method; type: functional
[8] = tested on: Bacillus subtilis; test: Antibacterial activity against Bacillus subtilis ATCC 23857 assessed as reduction in bacterial cell growth measured for 18 hrs by Mueller-Hinton broth based two-fold serial dilution method; type: functional
[9] = tested on: Escherichia coli; test: Antibacterial activity against Escherichia coli ATCC 25922 assessed as reduction in bacterial cell growth measured for 18 hrs by Mueller-Hinton broth based two-fold serial dilution method; type: functional
[10] = tested on: Pseudomonas aeruginosa; test: Antibacterial activity against Pseudomonas aeruginosa ATCC 27853 assessed as reduction in bacterial cell growth measured for 18 hrs by Mueller-Hinton broth based two-fold serial dilution method; type: functional
[11] = tested on: Klebsiella pneumoniae; test: Antibacterial activity against Klebsiella pneumoniae ATCC 700603 assessed as reduction in bacterial cell growth measured for 18 hrs by Mueller-Hinton broth based two-fold serial dilution method; type: functional

MIC [7] [µM]	MIC [8] [µM]	MIC [9] [µM]	MIC [10] [µM]	MIC [11] [µM]	Compound	MIC [1] [µM]	MIC [2] [µM]	MIC [3] [µM]	MIC [4] [µM]	MIC [5] [µM]	HC10 [6] [µM]
					CCCCCCCCCC(=O)NCC(=O)N[C@@H](CC(C)C)C(=O)N[C@@H](CC(C)C)C(=O)N[C@@H](CCCCN)C(=O)N[C@@H](CCCNC(=N)N)C(=O)N[C@H](C(=O)N[C@@H](CCCCN)C(=O)N[C@H](C(=O)N[C@@H](CC(C)C)C(=O)N[C@@H](CC(C)C)C(=O)NCCCCC(NC(=O)[C@H](CC(C)C)NC(=O)[C@H](CC(C)C)NC(=O)[C@@H](NC(=O)[C@H](CCCCN)NC(=O)[C@@H](NC(=O)[C@H](CCCNC(=N)N)NC(=O)[C@H](CCCCN)NC(=O)[C@H](CC(C)C)NC(=O)[C@H](CC(C)C)NC(=O)CNC(=O)CCCCCCCCC)[C@@H](C)CC)[C@@H](C)O)C(N)=O)[C@@H](C)O)[C@@H](C)CC (stereo partly drawn) (I: Decanoyl-GLLKRIKTLL[ξK]-NH2 / II: Decanoyl-GLLKRIKTLL; amide I:11-II:C)	256 (≈ 698 µg/mL)	256 (≈ 698 µg/mL)	64 (≈ 175 µg/mL)	256 (≈ 698 µg/mL)	128 (≈ 349 µg/mL)	26.56
					CC[C@H](C)[C@H](NC(=O)[C@H](CCCNC(=N)N)NC(=O)[C@H](CCCCN)NC(=O)[C@H](CC(C)C)NC(=O)[C@H](CC(C)C)NC(=O)CN)C(=O)N[C@@H](CCCCN)C(=O)N[C@H](C(=O)N[C@@H](CC(C)C)C(=O)N[C@@H](CC(C)C)C(=O)NCCCCC(NC(=O)[C@H](CC(C)C)NC(=O)[C@H](CC(C)C)NC(=O)[C@@H](NC(=O)[C@H](CCCCN)NC(=O)[C@@H](NC(=O)[C@H](CCCNC(=N)N)NC(=O)[C@H](CCCCN)NC(=O)[C@H](CC(C)C)NC(=O)[C@H](CC(C)C)NC(=O)CN)[C@@H](C)CC)[C@@H](C)O)C(N)=O)[C@@H](C)O (stereo partly drawn) (I: H-GLLKRIKTLL[ξK]-NH2 / II: H-GLLKRIKTLL; amide I:11-II:C)	16 (≈ 38.7 µg/mL)	4 (≈ 9.67 µg/mL)	8 (≈ 19.3 µg/mL)	8 (≈ 19.3 µg/mL)	8 (≈ 19.3 µg/mL)	51.2
					CCCCCC(=O)NCC(=O)N[C@@H](CC(C)C)C(=O)N[C@@H](CC(C)C)C(=O)N[C@@H](CCCCN)C(=O)N[C@@H](CCCNC(=N)N)C(=O)N[C@H](C(=O)N[C@@H](CCCCN)C(=O)N[C@H](C(=O)N[C@@H](CC(C)C)C(=O)N[C@@H](CC(C)C)C(=O)NCCCCC(NC(=O)[C@H](CC(C)C)NC(=O)[C@H](CC(C)C)NC(=O)[C@@H](NC(=O)[C@H](CCCCN)NC(=O)[C@@H](NC(=O)[C@H](CCCNC(=N)N)NC(=O)[C@H](CCCCN)NC(=O)[C@H](CC(C)C)NC(=O)[C@H](CC(C)C)NC(=O)CNC(=O)CCCCC)[C@@H](C)CC)[C@@H](C)O)C(N)=O)[C@@H](C)O)[C@@H](C)CC (stereo partly drawn) (I: Hexanoyl-GLLKRIKTLL[ξK]-NH2 / II: Hexanoyl-GLLKRIKTLL; amide I:11-II:C)	8 (≈ 20.9 µg/mL)	8 (≈ 20.9 µg/mL)	4 (≈ 10.5 µg/mL)	16 (≈ 41.8 µg/mL)	8 (≈ 20.9 µg/mL)	6.08
					CCCCCCCCCCCC(=O)NCC(=O)N[C@@H](CC(C)C)C(=O)N[C@@H](CC(C)C)C(=O)N[C@@H](CCCCN)C(=O)N[C@@H](CCCNC(=N)N)C(=O)N[C@H](C(=O)N[C@@H](CCCCN)C(=O)N[C@H](C(=O)N[C@@H](CC(C)C)C(=O)N[C@@H](CC(C)C)C(=O)NCCCCC(NC(=O)[C@H](CC(C)C)NC(=O)[C@H](CC(C)C)NC(=O)[C@@H](NC(=O)[C@H](CCCCN)NC(=O)[C@@H](NC(=O)[C@H](CCCNC(=N)N)NC(=O)[C@H](CCCCN)NC(=O)[C@H](CC(C)C)NC(=O)[C@H](CC(C)C)NC(=O)CNC(=O)CCCCCCCCCCC)[C@@H](C)CC)[C@@H](C)O)C(N)=O)[C@@H](C)O)[C@@H](C)CC (stereo partly drawn) (I: Lauroyl-GLLKRIKTLL[ξK]-NH2 / II: Lauroyl-GLLKRIKTLL; amide I:11-II:C)	256 (≈ 712 µg/mL)	256 (≈ 712 µg/mL)	128 (≈ 356 µg/mL)	256 (≈ 712 µg/mL)	256 (≈ 712 µg/mL)	15.16
					CCCCCCCC(=O)NCC(=O)N[C@@H](CC(C)C)C(=O)N[C@@H](CC(C)C)C(=O)N[C@@H](CCCCN)C(=O)N[C@@H](CCCNC(=N)N)C(=O)N[C@H](C(=O)N[C@@H](CCCCN)C(=O)N[C@H](C(=O)N[C@@H](CC(C)C)C(=O)N[C@@H](CC(C)C)C(=O)NCCCCC(NC(=O)[C@H](CC(C)C)NC(=O)[C@H](CC(C)C)NC(=O)[C@@H](NC(=O)[C@H](CCCCN)NC(=O)[C@@H](NC(=O)[C@H](CCCNC(=N)N)NC(=O)[C@H](CCCCN)NC(=O)[C@H](CC(C)C)NC(=O)[C@H](CC(C)C)NC(=O)CNC(=O)CCCCCCC)[C@@H](C)CC)[C@@H](C)O)C(N)=O)[C@@H](C)O)[C@@H](C)CC (stereo partly drawn) (I: Octanoyl-GLLKRIKTLL[ξK]-NH2 / II: Octanoyl-GLLKRIKTLL; amide I:11-II:C)	64 (≈ 171 µg/mL)	32 (≈ 85.5 µg/mL)	16 (≈ 42.7 µg/mL)	128 (≈ 342 µg/mL)	32 (≈ 85.5 µg/mL)	5.67
					CCCCCCCCCCCC(=O)NCC(=O)N[C@@H](CC(C)C)C(=O)N[C@@H](CC(C)C)C(=O)N[C@@H](CCCCN)C(=O)N[C@@H](CCCNC(=N)N)C(=O)N[C@H](C(=O)N[C@@H](CCCCN)C(=O)N[C@H](C(=O)N[C@@H](CC(C)C)C(=O)N[C@@H](CC(C)C)C(N)=O)[C@@H](C)O)[C@@H](C)CC (Lauroyl-GLLKRIKTLL-NH2)	16 (≈ 21.4 µg/mL)	16 (≈ 21.4 µg/mL)	64 (≈ 85.5 µg/mL)	32 (≈ 42.7 µg/mL)	128 (≈ 171 µg/mL)	11.38
8 (≈ 10.4 µg/mL)	4 (≈ 5.18 µg/mL)	8 (≈ 10.4 µg/mL)	8 (≈ 10.4 µg/mL)	16 (≈ 20.7 µg/mL)	CCCCCCCCC(=O)NCC(=O)N[C@@H](CC(C)C)C(=O)N[C@@H](CC(C)C)C(=O)N[C@@H](CCCCN)C(=O)N[C@@H](CCCNC(=N)N)C(=O)N[C@H](C(=O)N[C@@H](CCCCN)C(=O)N[C@H](C(=O)N[C@@H](CC(C)C)C(=O)N[C@@H](CC(C)C)C(N)=O)[C@@H](C)O)[C@@H](C)CC (Nonanoyl-GLLKRIKTLL-NH2)						
					CCCCCCCC(=O)NCC(=O)N[C@@H](CC(C)C)C(=O)N[C@@H](CC(C)C)C(=O)N[C@@H](CCCCN)C(=O)N[C@@H](CCCNC(=N)N)C(=O)N[C@H](C(=O)N[C@@H](CCCCN)C(=O)N[C@H](C(=O)N[C@@H](CC(C)C)C(=O)N[C@@H](CC(C)C)C(N)=O)[C@@H](C)O)[C@@H](C)CC (Octanoyl-GLLKRIKTLL-NH2)	8 (≈ 10.2 µg/mL)	8 (≈ 10.2 µg/mL)	16 (≈ 20.5 µg/mL)	8 (≈ 10.2 µg/mL)	16 (≈ 20.5 µg/mL)	210.63
16 (≈ 22 µg/mL)	8 (≈ 11 µg/mL)	16 (≈ 22 µg/mL)	16 (≈ 22 µg/mL)	32 (≈ 44.1 µg/mL)	CCCCCCCCCCCCCCC(=O)NCC(=O)N[C@@H](CC(C)C)C(=O)N[C@@H](CC(C)C)C(=O)N[C@@H](CCCCN)C(=O)N[C@@H](CCCNC(=N)N)C(=O)N[C@H](C(=O)N[C@@H](CCCCN)C(=O)N[C@H](C(=O)N[C@@H](CC(C)C)C(=O)N[C@@H](CC(C)C)C(N)=O)[C@@H](C)O)[C@@H](C)CC (Pentadecanoyl-GLLKRIKTLL-NH2)						
					I: Butyryl-GLLKRIKTLL[ξK][ξK]-NH2 / II: Butyryl-GLLKRIKTLL[ξK] / III: Butyryl-GLLKRIKTLL / IV: Butyryl-GLLKRIKTLL (amide I:11-IV:C, I:12-II:C, II:11-III:C)	16	16	8	8	32	1.06
					I: Decanoyl-GLLKRIKTLL[ξK][ξK]-NH2 / II: Decanoyl-GLLKRIKTLL[ξK] / III: Decanoyl-GLLKRIKTLL / IV: Decanoyl-GLLKRIKTLL (amide I:11-IV:C, I:12-II:C, II:11-III:C)	256	256	256	256	256	12.51
					I: H-GLLKRIKTLL[ξK][ξK]-NH2 / II: H-GLLKRIKTLL[ξK] / III: H-GLLKRIKTLL / IV: H-GLLKRIKTLL (amide I:11-IV:C, I:12-II:C, II:11-III:C)	8	8	8	8	16	1.31
					I: Hexanoyl-GLLKRIKTLL[ξK][ξK]-NH2 / II: Hexanoyl-GLLKRIKTLL[ξK] / III: Hexanoyl-GLLKRIKTLL / IV: Hexanoyl-GLLKRIKTLL (amide I:11-IV:C, I:12-II:C, II:11-III:C)	32	32	32	32	32	10.91
					I: Lauroyl-GLLKRIKTLL[ξK][ξK]-NH2 / II: Lauroyl-GLLKRIKTLL[ξK] / III: Lauroyl-GLLKRIKTLL / IV: Lauroyl-GLLKRIKTLL (amide I:11-IV:C, I:12-II:C, II:11-III:C)	256	256	125	256	256	210.92
					I: Octanoyl-GLLKRIKTLL[ξK][ξK]-NH2 / II: Octanoyl-GLLKRIKTLL[ξK] / III: Octanoyl-GLLKRIKTLL / IV: Octanoyl-GLLKRIKTLL (amide I:11-IV:C, I:12-II:C, II:11-III:C)	256	256	256	256	256	103.4
